Results on 1 compound are retold here after patent US7893266B2, “Detection of cancer cells in vitro using sigma-2 receptor ligands as radiotracers” (Washington University, priority 2003, dated 2011).

Where two headings read alike, the source gives them in different places.

In this assay the target is T1, σ2 receptor (Rattus norvegicus, UniProt Q5U3Y7).
T1 construct: rat liver membrane homogenates (35 μg of protein); from tissue; host or cells: rat liver membrane homogenates
T1 sequence (Q5U3Y7 1-176): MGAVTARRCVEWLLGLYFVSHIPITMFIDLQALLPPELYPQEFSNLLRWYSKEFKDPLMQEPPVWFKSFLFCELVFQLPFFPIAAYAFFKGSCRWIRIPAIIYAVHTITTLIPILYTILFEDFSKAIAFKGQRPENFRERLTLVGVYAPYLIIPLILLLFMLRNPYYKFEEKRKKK
Kind of assay: σ2 receptor binding assay, [3H]DTG, rat liver membrane homogenates. The procedure: The σ2 receptor binding assay was conducted using rat liver membrane homogenates (35 μg of protein). […] Incubations were carried out in 50 mM Tris-HCl (pH 8.0) for 120 min at 25° C. in a total incubation volume of 0.5 ml. Test compounds were added in concentrations ranging from 0.005 to 1000 nM. […] Filters were washed twice with 5 ml of ice cold buffer. Nonspecific binding was determined in the presence of 5 μM DTG.

Take `COc1cc2c(cc1OC)CN(CCNC(=O)c1cc(C)ccc1OC)CC2` [Compound 9]: the Ki was determined as 0.0133 ± 0.0001 µM (Mean ± SEM, rat liver, [3H]DTG, read-out: Ki σ2) and 0.0133 µM (Table I, unit inferred, read-out: σ2).
